{
  "source": "patent US20120251495A1",
  "about": "“PTERIN BASED THERAPIES FOR INFLAMMATORY CONDITIONS” (priority 2008, published 2012)",
  "key": {"[1]": {"system": "MDA-MB-231 human breast tumor xenographs", "test": "Antitumor efficacy in nude mice with MDA-MB-231 xenographs, 2nd experiment", "format": "in vivo, athymic nude mice", "details": "(1:2) 25, DCP 23 and 69, calcium chloride dihydrate 4.2 mg/kg/day", "experimental": "In the 2nd experiment, twenty-nine athymic nude, also purchased from Harlan Sprague Dawley, Inc. (Indianapolis, Ind.), were each injected subcutaneously with 10×10^6 MDA-MB-231 cancer cells into the right flank. When tumors reached 3-5 mm in size, the mice were divided into five treatment groups of five each and a control group of four mice. […] All the other mice in the 2nd experiment persisted ≧43 days without complications. Experimental groups were treated by oral gavage once daily with the indicated test suspensions or solutions."}, "plasma cytokines [2]": {"system": "plasma cytokines", "test": "Plasma cytokine levels (multiplex and single ELISA kits), 2nd experiment", "format": "in vivo, athymic nude mice", "details": "for IL-5: limit of detection 3.0; for IL-6: limit of detection 3.9; for IL-1β: limit of detection 4.1; for IL-10: limit of detection 24.6", "description": "Cytokine levels in EDTA plasma from the mice in the 2nd experiment were measured at the UCSD Core Laboratory (San Diego, Calif.) using a multiplex assay kit for IL-1β, IL-2, IL-4, IL-5, IL-10, IL-12, IFN-γ, TNF-α and single ELISA kits for IL-6 and TGF-β1 by R&D Systems. […] For both the 1st and 2nd experiments, those measured cytokine values falling below the limits of detection were set to the higher assay limit for the purposes of the subsequent statistical analyses, and recorded as n.d. (not detectable) in Tables 1 through 3."}, "plasma cytokines [3]": {"system": "plasma cytokines", "test": "Plasma cytokine levels by ELISA (LINCOplex), 1st experiment", "format": "in vivo, athymic nude (nu/nu) mice", "details": "Table 4, 21 mg/kg/d", "description": "Cytokine levels in EDTA plasma from the mice in the 1st experiment were determined by ELISA assay at Alta Analytical Laboratories (San Diego, Calif.) using a LINCOplex Kit (Linco Research). Tryptophan (Trp) and kynurenine (Kyn) concentrations were measured from EDTA plasma samples by high pressure liquid chromatography (HPLC) using 3-nitro-L-tyrosine as the internal standard (Widner et al., 1997). To estimate IDO activity, the kynurenine to tryptophan ratio (Kyn/Trp) was calculated and expressed as μmol kynurenine/mmol tryptophan (Wirleitner, 2003). The values from five mice in the 1st experiment are not included in the summary statistics given in Table 1 for the following reasons. One mouse from each of the four treatment groups was used to test the effects of mega dosing, i.e., with (1:4 mol:mol) calcium pterin at 100 mg/kg/day after Day 60 of treatment, and are excluded. Also excluded was one mouse from the (1:4 mol:mol) calcium pterin (7 mg/kg/day) group which expired suddenly a few days before blood was collected. Cytokine measurements <3.2 pg/ml are reported as n.d. (not detectable) because the standard curves used in the ELISA assays were not calibrated below that level.\nCytokine levels in EDTA plasma from the mice in the 1st experiment were determined by ELISA assay at Alta Analytical Laboratories (San Diego, Calif.) using a LINCOplex Kit (Linco Research).\nCytokine levels in EDTA plasma from the mice in the 2nd experiment were measured at the UCSD Core Laboratory (San Diego, Calif.) using a multiplex assay kit for IL-1β, IL-2, IL-4, IL-5, IL-10, IL-12, IFN-γ, TNF-α and single ELISA kits for IL-6 and TGF-β1 by R&D Systems. EDTA plasma samples from two of the three ungavaged controls were lost due to handling error. For both the 1st and 2nd experiments, those measured cytokine values falling below the limits of detection were set to the higher assay limit for the purposes of the subsequent statistical analyses, and recorded as n.d. (not detectable) in Tables 1 through 3."}, "[4]": {"system": "MDA-MB-231 human breast tumor xenographs", "test": "Antitumor efficacy in nude mice with MDA-MB-231 xenographs, 1st experiment", "format": "in vivo, athymic nude (nu/nu) mice", "details": "21 mg/kg/day", "description": "The aims of the 1st experiment were to determine a dose-response curve for the (1:4 mol:mol) calcium pterin suspension, to compare the antitumor activity of this suspension to pterin alone (pterin control), and to test the effect of CaPterin mega-dosing at 100 mg/kg/day. Antitumor efficacy was evaluated in nude mice with MDA-MB-231 human tumor xenographs by Perry Scientific (San Diego, Calif.). In the 1st experiment, twenty-three athymic nude (nu/nu) female mice, ages 3-4 weeks, were purchased from Harlan Sprague Dawley, Inc. (Indianapolis, Ind.). 5×10^6 MDA-MB-231 cancer cells were injected subcutaneously into the right flank of each mouse. When tumors reached 3-5 mm in size, twenty mice were divided into four treatment/control groups of five mice each. The four treatment groups were: (1:4 mol:mol) calcium pterin (7 mg/kg/day); pterin (21 mg/kg/day); (1:4 mol:mol) calcium pterin (21 mg/kg/day); and sterile water control. Two mice with outlying tumor sizes or non-tumor takes were excluded shortly after treatment began: one from the pterin group and one from the control group. […] Only one outlier persisted >4 days, for 14 days. Also excluded from the metabolic analysis in the 1st experiment was one mouse from each of the four experimental groups mega-dosed by oral gavage with 100 mg/kg/day CaPterin for tip to 31 days to test for toxicity. All the other mice in the 1st experiment persisted ≧60 days without complications.\nThe control mice in the 1st experiment were treated with sterile water while the control mice in the 2nd experiment were untreated to evaluate the effect of mouse handling and gavaging upon tumor growth. Daily dosing was for 7 days per week. Animals were restrained but not anesthetized for oral dosing. Tumors were measured twice weekly with calipers and body weights taken twice weekly on the day of tumor measurements. Blood was collected from all animals via cardiac puncture at termination (after 70 to 98 days of treatment) and processed to EDTA plasma for analysis. Tumor size measurements for the control group in the 2nd experiment on days 4 and 7 were missed due to a technical oversight.\nThe MDA-MB-231 human breast tumor cell lines were supplied by SRI International (Menlo Park, Calif.) and propagated using standard in vitro cell expansion methods. Briefly, cells were grown in L-15 media from Gibco (Cat. No. 11415-064) supplemented with 2 mM L-Glutamine and 10% Fetal Bovine Serum (FBS). The cells were cultured in an incubator with 5% CO2, 37.5° C., and 80% humidity. Cells were harvested with 0.25% (w/v) Trypsin-0.03% (w/v) EDTA solution. Cells were prepared for injection by standard methods to appropriate concentrations. Animals were temporarily restrained but not anesthetized for the inoculation of the tumor cells. Animals were subcutaneously injected with the tumor cells in a 100-200 μl volume.\nEach animal was individually tracked for tumor growth by external caliper measurements of protruding tumor. Primary tumor sizes were measured using calipers and an approximate tumor volume calculated using the formula 1/2 (a×b^2), where b was the smaller of two perpendicular diameters.\nFor each group, the mean and standard error of the mean (SEM) of the ratio V/Vo, Relative Tumor Volume (RTV), were plotted as a function of treatment time after inoculation. V0 was the tumor volume at Day 0, when treatment began."}, "[5]": {"system": "MDA-MB-231 xenograph tumors", "test": "Combined analysis of DCP + control mice: Day 42,43 relative tumor volume and DCP/APCP", "format": "in vivo, nude mice", "details": "25 mg/(kg day); Day 42,43 relative tumor volume; combined data", "description": "Standard ANOVA models for group effects, curve fitting, and stepwise regression analyses were carried out using SPSS Graduate Pack 15.0 for Windows (2006), with p<0.05 used to determine significance.\nTable 7 gives the plasma cytokine and relative tumor volume Spearman rank order correlations for the 12 DCP+ control mice (Control [n=3; from 1st experiment]; 23 mg/(kg d) DCP [n=5; from 2nd experiment]; and 69 mg/(kg d) DCP [n=4; from 2nd experiment]).\nTo further determine significant causal and correlational linkages among DCP dosage, plasma cytokine changes, and relative tumor volume, the following curve fitting analyses were carried out with the 12 DCP+ control mice. First, plotting DCP versus Day 42,43 Relative Tumor Volume yielded a significant quadratic relationship (FIG. 11). Second, curve fitting each cytokine versus Day 42,43 Relative Tumor Volume found no significant linear relationship and only one significant quadratic relationship, i.e., with IL-12 (p=0.004; FIG. 12). Third, plotting DCP versus IL-12 yielded a weakly significant quadratic relationship (p=0.048; FIG. 13).\nSubstantially more significant analogous plots were generated by first carrying out the Table 8 stepwise regression analysis which derived the DCP antitumor plasma cytokine pattern (DCP/APCP), shown to be a more significant cytokine composite measure than IL-12 taken alone. The Table 8 stepwise regression analysis of the cytokine data from the 12 DCP+ control mice allowed for the calculation of DCP/APCP scores for each mouse. These DCP/APCP scores are plotted versus DCP dosage in […], which illustrates the significant quadratic dose-response relationships of DCP versus the derived plasma DCP/APCP composite measure. From this figure the estimated optimum dosage of DCP for maximum tumor growth inhibition is 42 mg/(kg day), while the estimated optimum dosage for maximum DCP/APCP induction is 44 mg/(kg day)."}, "[6]": {"details": "2nd experiment, CaCl2 group, 4.2 mg/kg/day"}, "[7]": {"details": "2nd experiment, CaCl2 group, 4.2 mg/kg/day, limit of detection 3.2"}, "[8]": {"details": "2nd experiment, 25 mg/kg/d, limit of detection 3.2"}},
  "data": [
    {"compound": "O.O.[Ca+2].[Cl-].[Cl-]", "note": "[CaCl2•2H2O, calcium chloride dihydrate, reference compound]", "values": [
      {"measurement": "MDA-MB-231 xenograph growth inhibition", "setting": "[1]", "value": "significantly inhibit"},
      {"measurement": "plasma IL-12 versus control (FIG. 10)", "setting": "plasma cytokines [2]; 4.2 mg/(kg day)", "value": "significantly elevated"},
      {"measurement": "IL-5", "setting": "plasma cytokines [2]; [6]", "value": "10.3 ± 2.4", "unit": "pg/mL"},
      {"measurement": "IFN-γ", "setting": "plasma cytokines [2]; [7]", "value": "9.7 ± 3.3", "unit": "pg/mL"},
      {"measurement": "IL-4", "setting": "plasma cytokines [2]; [7]", "value": "3.6 ± .3 pg/mL"},
      {"measurement": "IL-12", "setting": "plasma cytokines [2]; [7]", "value": "904.9 ± 156.9", "unit": "pg/mL"},
      {"measurement": "IL-6", "setting": "plasma cytokines [2]; [6]", "value": "44.4 ± 15.4", "unit": "pg/mL"},
      {"measurement": "IL-1β", "setting": "plasma cytokines [2]; [6]", "value": "6.4 ± .9 pg/mL"},
      {"measurement": "IL-2", "setting": "plasma cytokines [2]; 2nd experiment, CaCl2 group, 4.2 mg/kg/day, limit of detection 12.6", "value": "12.7 ± .13 pg/mL"},
      {"measurement": "IL-10", "setting": "plasma cytokines [2]; [6]", "value": "26.5 ± 1.9", "unit": "pg/mL"},
      {"measurement": "TGF-β1", "setting": "plasma cytokines [2]; 2nd experiment, CaCl2 group, 4.2 mg/kg/day, limit of detection 31.2", "value": "74.3 ± 35.0", "unit": "pg/mL"}
    ]},
    {"compound": "Nc1nc2nccnc2c(=O)[nH]1", "note": "[Pterin, 2-amino-4(3H)-pteridinone]", "values": [
      {"measurement": "IL-12", "setting": "plasma cytokines [3]; limit of detection 3.2", "value": "48.5 ± 45.3", "unit": "pg/mL"},
      {"measurement": "TNF-α", "setting": "plasma cytokines [3]; limit of detection 3.2", "value": "9.0 ± 3.7", "unit": "pg/mL"},
      {"measurement": "IL-1β", "setting": "plasma cytokines [3]; limit of detection 4.1", "value": "64.6 ± 60.4", "unit": "pg/mL"},
      {"measurement": "IL-6", "setting": "plasma cytokines [3]; plasma at sacrifice, limit of detection 3.9", "value": "87.4 ± 11.0", "unit": "pg/mL"},
      {"measurement": "antitumor activity (tumor growth vs control)", "setting": "[4]", "value": "no antitumor activity"}
    ]},
    {"compound": "(1:2 mol:mol) calcium pterin", "values": [
      {"measurement": "MDA-MB-231 xenograph growth inhibition", "setting": "[1]", "value": "significantly inhibit"},
      {"measurement": "IL-5", "setting": "plasma cytokines [2]; 2nd experiment, 25 mg/kg/d", "value": "4.4 ± .9 pg/mL"},
      {"measurement": "IFN-γ", "setting": "plasma cytokines [2]; [8]", "value": "16.1 ± 12.9", "unit": "pg/mL"},
      {"measurement": "IL-12", "setting": "plasma cytokines [2]; [8]", "value": "315.2 ± 71.0", "unit": "pg/mL"},
      {"measurement": "IL-6", "setting": "plasma cytokines [2]; 2nd experiment, 25 mg/kg/d", "value": "31.6 ± 9.2", "unit": "pg/mL"},
      {"measurement": "IL-1β", "setting": "plasma cytokines [2]; 2nd experiment, 25 mg/kg/d", "value": "4.9 ± .5 pg/mL"},
      {"measurement": "IL-10", "setting": "plasma cytokines [2]; 2nd experiment, 25 mg/kg/d", "value": "30.2 ± 5.6", "unit": "pg/mL"},
      {"measurement": "increases in plasma IL-12 (FIG. 10)", "setting": "plasma cytokines [2]; at the dosages tested", "value": "lower, non-significant increases"},
      {"measurement": "tumor growth inhibition relative to controls (FIG. 9)", "setting": "[5]", "value": "significant tumor growth inhibition"}
    ]}
  ]
}
